Measurements as given in patent publication US20230148214A1, “INDAZOLES AND AZAINDAZOLES AS LRRK2 INHIBITORS” (ESCAPE Bio, Inc., priority 2020, published 2023).

Experiments:
[1] = target: T1, LRRK2 WT (Homo sapiens, UniProt Q5S007); assay: LRRK2 Kinase Activity Assay (LanthaScreen TR-FRET), wild type; assay type: biochemical; conditions: recombinant wild type LRRK2, 25 μM ATP, 400 nM LRRKtide, 60 min; class symbols
T1 construct: purchased Life Technologies PR8604B
Procedure, shortened: (§1)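 IC50 fitted to the compound-dependent loss of TR-FRET signal. Each kinase form, wild type or G2019S, phosphorylated the fluorescein-tagged ERM-derived LRRKtide in the presence of ATP and compound dilutions over 60 min at room temperature; quench contained 10 mM EDTA and 2 nM anti-pERM antibody (final).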

[2] = target: T2, LRRK2 G2019S (Homo sapiens, UniProt Q5S007, G2019S); assay: LRRK2 Kinase Activity Assay (LanthaScreen TR-FRET), G2019S; assay type: biochemical; conditions: recombinant G2019S-LRRK2, 25 μM ATP, 400 nM LRRKtide, 60 min; class symbols
T2 construct: purchased Life Technologies PV4881
Procedure, shortened: as §1

T1 sequence (Q5S007 whole entry): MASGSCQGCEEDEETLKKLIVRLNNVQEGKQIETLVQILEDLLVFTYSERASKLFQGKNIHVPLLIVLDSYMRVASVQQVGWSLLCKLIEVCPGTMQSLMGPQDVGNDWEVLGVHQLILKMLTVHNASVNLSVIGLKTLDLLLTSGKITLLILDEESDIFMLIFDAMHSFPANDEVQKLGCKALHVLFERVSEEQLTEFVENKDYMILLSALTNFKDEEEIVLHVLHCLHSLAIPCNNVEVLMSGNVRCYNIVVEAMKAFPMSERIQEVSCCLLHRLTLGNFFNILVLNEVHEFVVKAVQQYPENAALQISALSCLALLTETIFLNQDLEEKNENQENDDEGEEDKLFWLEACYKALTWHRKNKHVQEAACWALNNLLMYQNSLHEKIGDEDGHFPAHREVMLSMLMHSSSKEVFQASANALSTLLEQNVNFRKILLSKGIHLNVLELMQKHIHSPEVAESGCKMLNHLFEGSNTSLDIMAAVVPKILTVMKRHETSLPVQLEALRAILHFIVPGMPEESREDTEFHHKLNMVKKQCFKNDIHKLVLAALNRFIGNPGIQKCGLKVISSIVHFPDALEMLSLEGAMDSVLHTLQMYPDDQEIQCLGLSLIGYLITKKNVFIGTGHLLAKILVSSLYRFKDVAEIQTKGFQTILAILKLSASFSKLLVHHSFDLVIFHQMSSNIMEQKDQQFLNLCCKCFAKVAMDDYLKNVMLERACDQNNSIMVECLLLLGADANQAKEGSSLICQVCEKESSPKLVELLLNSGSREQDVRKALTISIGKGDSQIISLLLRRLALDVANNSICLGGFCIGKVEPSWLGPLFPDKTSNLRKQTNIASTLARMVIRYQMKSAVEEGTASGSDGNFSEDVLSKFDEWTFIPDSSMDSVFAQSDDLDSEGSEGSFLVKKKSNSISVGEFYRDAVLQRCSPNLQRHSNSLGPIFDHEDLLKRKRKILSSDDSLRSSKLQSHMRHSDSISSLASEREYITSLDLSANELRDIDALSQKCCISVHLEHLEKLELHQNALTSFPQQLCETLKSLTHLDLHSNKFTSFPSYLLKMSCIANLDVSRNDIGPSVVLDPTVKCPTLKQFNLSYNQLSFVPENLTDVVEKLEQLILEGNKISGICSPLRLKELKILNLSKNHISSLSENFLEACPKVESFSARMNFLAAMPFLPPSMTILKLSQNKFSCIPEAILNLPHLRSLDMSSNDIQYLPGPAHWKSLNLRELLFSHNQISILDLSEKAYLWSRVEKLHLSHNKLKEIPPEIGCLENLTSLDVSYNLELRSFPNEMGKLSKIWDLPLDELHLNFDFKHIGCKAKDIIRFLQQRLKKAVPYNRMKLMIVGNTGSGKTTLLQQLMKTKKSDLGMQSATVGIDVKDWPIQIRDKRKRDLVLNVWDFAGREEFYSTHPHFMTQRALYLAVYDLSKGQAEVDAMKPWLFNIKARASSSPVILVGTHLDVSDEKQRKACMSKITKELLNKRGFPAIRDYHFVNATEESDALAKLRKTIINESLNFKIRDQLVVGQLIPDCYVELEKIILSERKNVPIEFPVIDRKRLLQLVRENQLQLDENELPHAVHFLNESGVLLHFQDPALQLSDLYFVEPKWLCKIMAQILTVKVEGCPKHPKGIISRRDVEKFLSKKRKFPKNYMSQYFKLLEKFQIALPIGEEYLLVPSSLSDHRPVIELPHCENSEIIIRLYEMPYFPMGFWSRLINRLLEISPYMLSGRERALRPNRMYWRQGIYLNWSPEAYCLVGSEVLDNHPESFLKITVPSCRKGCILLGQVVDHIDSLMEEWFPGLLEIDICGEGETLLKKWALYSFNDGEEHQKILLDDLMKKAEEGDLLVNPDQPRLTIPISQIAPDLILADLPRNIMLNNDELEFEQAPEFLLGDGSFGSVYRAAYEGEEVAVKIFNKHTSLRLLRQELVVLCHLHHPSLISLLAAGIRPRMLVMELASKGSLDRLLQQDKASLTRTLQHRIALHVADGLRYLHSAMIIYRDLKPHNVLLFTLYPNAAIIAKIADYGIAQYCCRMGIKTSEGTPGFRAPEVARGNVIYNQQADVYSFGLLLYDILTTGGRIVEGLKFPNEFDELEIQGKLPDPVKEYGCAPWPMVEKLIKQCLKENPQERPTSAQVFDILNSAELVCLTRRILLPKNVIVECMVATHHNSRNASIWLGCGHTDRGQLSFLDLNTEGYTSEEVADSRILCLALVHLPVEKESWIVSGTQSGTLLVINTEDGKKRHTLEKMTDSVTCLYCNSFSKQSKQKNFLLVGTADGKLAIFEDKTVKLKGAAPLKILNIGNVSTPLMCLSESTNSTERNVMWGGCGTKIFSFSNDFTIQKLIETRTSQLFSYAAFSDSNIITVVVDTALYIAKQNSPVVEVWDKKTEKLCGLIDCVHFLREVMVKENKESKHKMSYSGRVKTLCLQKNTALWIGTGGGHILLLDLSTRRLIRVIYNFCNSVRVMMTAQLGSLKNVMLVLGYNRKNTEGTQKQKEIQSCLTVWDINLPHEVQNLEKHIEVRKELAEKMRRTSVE
T2 sequence (Q5S007 whole entry G2019S): as the sequence (Q5S007 whole entry) above, with G2019S counted along it

Structure (SMILES)	IC50 [1] [µM]	IC50 [2] [µM]
N#Cc1ccc2c(c1)CC[C@@H]2Nc1ccc2[nH]nc(C3CC3)c2c1 (single isomer, unassigned) [Example 134, enantiomer 2, 1-((3-Cyclopropyl-1H-indazol-5-yl)amino)-2,3-dihydro-1H-indene-5-carbonitrile]	1 to 10	0.1 to 1
N#Cc1ccc2c(n1)CCC[C@@H]2Oc1ccc2[nH]nc(I)c2c1 (single isomer, unassigned) [Example 135, enantiomer 1, 5-((3-Iodo-1H-indazol-5-yl)oxy)-5,6,7,8-tetrahydroquinoline-2-carbonitrile]	0.1 to 1	< 0.1
N#Cc1ccc2c(n1)CCC[C@@H]2Oc1ccc2[nH]nc(I)c2c1 (single isomer, unassigned) [Example 135, enantiomer 2, 5-((3-Iodo-1H-indazol-5-yl)oxy)-5,6,7,8-tetrahydroquinoline-2-carbonitrile]	0.1 to 1	< 0.1
N#Cc1cnc2c(c1)CCC[C@@H]2Oc1ccc2[nH]nc(C3CC3)c2c1 (single isomer, unassigned) [Example 136, enantiomer 1, 8-((3-Cyclopropyl-1H-indazol-5-yl)oxy)-5,6,7,8-tetrahydroquinoline-3-carbonitrile]	0.1 to 1	< 0.1
N#Cc1cnc2c(c1)CCC[C@@H]2Oc1ccc2[nH]nc(I)c2c1 (single isomer, unassigned) [Example 137, enantiomer 1, 8-((3-Iodo-1H-indazol-5-yl)oxy)-5,6,7,8-tetrahydroquinoline-3-carbonitrile]	< 0.1	< 0.1
N#Cc1cnc2c(c1)CCC[C@@H]2Oc1ccc2[nH]nc(I)c2c1 (single isomer, unassigned) [Example 137, enantiomer 2, 8-((3-Iodo-1H-indazol-5-yl)oxy)-5,6,7,8-tetrahydroquinoline-3-carbonitrile]	0.1 to 1	< 0.1
N#Cc1ccc2c(c1)C(F)(F)C[C@@H]2Nc1ccc2[nH]nc(-c3cnco3)c2c1 (single isomer, unassigned) [Example 138, enantiomer 1, 3,3-Difluoro-1-((3-(oxazol-5-yl)-1H-indazol-5-yl)amino)-2,3-dihydro-1H-indene-5-carbonitrile]	< 0.1	< 0.1
N#Cc1ccc2c(c1)C(F)(F)C[C@@H]2Nc1ccc2[nH]nc(-c3cnco3)c2c1 (single isomer, unassigned) [Example 138, enantiomer 2, 3,3-Difluoro-1-((3-(oxazol-5-yl)-1H-indazol-5-yl)amino)-2,3-dihydro-1H-indene-5-carbonitrile]	0.1 to 1	< 0.1
N#Cc1ccc2c(c1)CCC[C@@H]2Nc1ccc2[nH]nc(CC3CC3)c2c1 (single isomer, unassigned) [Example 139, enantiomer 1, 5-((3-(Cyclopropylmethyl)-1H-indazol-5-yl)amino)-5,6,7,8-tetrahydronaphthalene-2-carbonitrile]	1 to 10	1 to 10
N#Cc1ccc2c(c1)CCC[C@@H]2Nc1ccc2[nH]nc(CC3CC3)c2c1 (single isomer, unassigned) [Example 139, enantiomer 2, 5-((3-(Cyclopropylmethyl)-1H-indazol-5-yl)amino)-5,6,7,8-tetrahydronaphthalene-2-carbonitrile]	1 to 10	< 0.1
N#Cc1ccc2c(c1)C1(CC1)C[C@@H]2Nc1ccc2[nH]nc(-c3cnco3)c2c1 (single isomer, unassigned) [Example 140, enantiomer 1, 3′-((3-(Oxazol-5-yl)-1H-indazol-5-yl)amino)-2′,3′-dihydrospiro[cyclopropane-1,1′-indene]-6′-carbonitrile]	0.1 to 1	< 0.1
N#Cc1ccc2c(c1)C1(CC1)C[C@@H]2Nc1ccc2[nH]nc(-c3cnco3)c2c1 (single isomer, unassigned) [Example 140, enantiomer 2, 3′-((3-(Oxazol-5-yl)-1H-indazol-5-yl)amino)-2′,3′-dihydrospiro[cyclopropane-1,1′-indene]-6′-carbonitrile]	0.1 to 1	< 0.1
N#Cc1cnc2c(c1)CCC[C@@H]2Oc1ccc2[nH]nc(-c3cnn(C(F)F)c3)c2c1 (single isomer, unassigned) [Example 141, enantiomer 1, 8-((3-(1-(Difluoromethyl)-1H-pyrazol-4-yl)-1H-indazol-5-yl)oxy)-5,6,7,8-tetrahydroquinoline-3-carbonitrile]	< 0.1	< 0.1
N#Cc1cnc2c(c1)CCC[C@@H]2Nc1ccc2[nH]nc(-c3cncs3)c2c1 (single isomer, unassigned) [Example 142, enantiomer 1, 8-((3-(Thiazol-5-yl)-1H-indazol-5-yl)amino)-5,6,7,8-tetrahydroquinoline-3-carbonitrile]	0.1 to 1	< 0.1
N#Cc1ccc2c(c1Cl)CCC[C@@H]2Nc1ccc2[nH]nc(-c3cnco3)c2c1 (single isomer, unassigned) [Example 143, enantiomer 1, 1-Chloro-5-((3-(oxazol-5-yl)-1H-indazol-5-yl)amino)-5,6,7,8-tetrahydronaphthalene-2-carbonitrile]	0.1 to 1	< 0.1
N#Cc1cnc2c(c1Cl)CCC[C@@H]2Nc1ccc2[nH]nc(-c3cnco3)c2c1 (single isomer, unassigned) [Example 144, enantiomer 1, 4-Chloro-8-((3-(oxazol-5-yl)-1H-indazol-5-yl)amino)-5,6,7,8-tetrahydroquinoline-3-carbonitrile]	0.1 to 1	0.1 to 1

Other lines, results leading:

IC50 [1] [µM]	IC50 [2] [µM]	Structure (SMILES)
< 0.1	< 0.1	N#Cc1cnc2c(c1Cl)CCC[C@@H]2Nc1ccc2[nH]nc(-c3cnco3)c2c1 (single isomer, unassigned) [Example 144, enantiomer 2, 4-Chloro-8-((3-(oxazol-5-yl)-1H-indazol-5-yl)amino)-5,6,7,8-tetrahydroquinoline-3-carbonitrile]
0.1 to 1	< 0.1	N#Cc1cnc2c(c1C(F)(F)F)CCC[C@@H]2Nc1ccc2[nH]nc(-c3cnco3)c2c1 (single isomer, unassigned) [Example 145, enantiomer 1, 8-((3-(Oxazol-5-yl)-1H-indazol-5-yl)amino)-4-(trifluoromethyl)-5,6,7,8-tetrahydroquinoline-3-carbonitrile]
0.1 to 1	< 0.1	COc1c(C#N)cnc2c1CCC[C@@H]2Nc1ccc2[nH]nc(-c3cnco3)c2c1 (single isomer, unassigned) [Example 146, enantiomer 1, 4-Methoxy-8-((3-(oxazol-5-yl)-1H-indazol-5-yl)amino)-5,6,7,8-tetrahydroquinoline-3-carbonitrile]
< 0.1	< 0.1	N#Cc1cnc2c(c1C(F)F)CCC[C@@H]2Nc1ccc2[nH]nc(-c3cnco3)c2c1 (single isomer, unassigned) [Example 147, enantiomer 1, 4-(Difluoromethyl)-8-((3-(oxazol-5-yl)-1H-indazol-5-yl)amino)-5,6,7,8-tetrahydroquinoline-3-carbonitrile]
0.1 to 1	< 0.1	N#Cc1cnc2c(c1C(F)F)CCC[C@@H]2Nc1ccc2[nH]nc(-c3cnco3)c2c1 (single isomer, unassigned) [Example 147, enantiomer 2, 4-(Difluoromethyl)-8-((3-(oxazol-5-yl)-1H-indazol-5-yl)amino)-5,6,7,8-tetrahydroquinoline-3-carbonitrile]
< 0.1	< 0.1	N#Cc1cnc2c(c1)CCC[C@@H]2Nc1ccc2[nH]nc(-c3ccc[nH]3)c2c1 (single isomer, unassigned) [Example 148, enantiomer 1, 8-((3-(1H-Pyrrol-2-yl)-1H-indazol-5-yl)amino)-5,6,7,8-tetrahydroquinoline-3-carbonitrile]
0.1 to 1	0.1 to 1	N#Cc1cnc2c(c1)CCC[C@@H]2Nc1ccc2[nH]nc(-c3ccc[nH]3)c2c1 (single isomer, unassigned) [Example 148, enantiomer 2, 8-((3-(1H-Pyrrol-2-yl)-1H-indazol-5-yl)amino)-5,6,7,8-tetrahydroquinoline-3-carbonitrile]
0.1 to 1	0.1 to 1	Cn1ccc(-c2n[nH]c3ccc(N[C@H]4CCCc5cc(C#N)cnc54)cc23)c1 (single isomer, unassigned) [Example 149, enantiomer 1, 8-((3-(1-Methyl-1H-pyrrol-3-yl)-1H-indazol-5-yl)amino)-5,6,7,8-tetrahydroquinoline-3-carbonitrile]
< 0.1	< 0.1	Cn1ccc(-c2n[nH]c3ccc(N[C@H]4CCCc5cc(C#N)cnc54)cc23)c1 (single isomer, unassigned) [Example 149, enantiomer 2, 8-((3-(1-Methyl-1H-pyrrol-3-yl)-1H-indazol-5-yl)amino)-5,6,7,8-tetrahydroquinoline-3-carbonitrile]
0.1 to 1	0.1 to 1	Cc1c(C#N)cnc2c1CCC[C@@H]2Nc1ccc2[nH]nc(-c3cnco3)c2c1 (single isomer, unassigned) [Example 150, enantiomer 1, 4-Methyl-8-((3-(oxazol-5-yl)-1H-indazol-5-yl)amino)-5,6,7,8-tetrahydroquinoline-3-carbonitrile]
< 0.1	< 0.1	Cc1c(C#N)cnc2c1CCC[C@@H]2Nc1ccc2[nH]nc(-c3cnco3)c2c1 (single isomer, unassigned) [Example 150, enantiomer 2, 4-Methyl-8-((3-(oxazol-5-yl)-1H-indazol-5-yl)amino)-5,6,7,8-tetrahydroquinoline-3-carbonitrile]
0.1 to 1	< 0.1	N#Cc1ccc2c(c1F)CC(F)(F)[C@@H]2Nc1ccc2[nH]nc(-c3cnco3)c2c1 (single isomer, unassigned) [Example 151, enantiomer 1, 2,2,4-Trifluoro-1-((3-(oxazol-5-yl)-1H-indazol-5-yl)amino)-2,3-dihydro-1H-indene-5-carbonitrile]
